# Like-named read-outs stand apart in the source and are kept apart here.
# What was measured:
# [1] = molecular target: T1, human serum albumin (HSA) (Homo sapiens, UniProt P02768); test: Fluorescence emission spectrum (quenching) of HSA with carbamate pesticides; assay type: binding; conditions: for R (binding distance): Förster energy transfer; for ΔH^0 / ΔS^0: Van't Hoff, 296-310 K
# Description: the mixed solution to be tested was preheated at […] for 3 minutes, and the emission spectrum of HSA with carbamate pesticides was measured at 300-500 nm . The excitation wavelength was set at 280 nm , and the slit width for both excitation and emission was 15 nm; the HSA concentration was kept constant at 5×10^−7 M, and the pesticide concentration was (0-105)×10^−7 M.
# The internal filtering effect of fluorescence signal was corrected according to the following formula: Fcor=Fobsexp[(Aex+Aem)/2] (1);
# in this formula, Fcor and Fobs represent corrected fluorescence signal and observed fluorescence signal, respectively, and Aex and Aem represent absorbance of the mixed solution to be tested at excitation wavelength and emission wavelengths, respectively; the quenching constant, number of binding sites, binding constant, free energy and binding distance of different drugs were obtained by fluorescence emission spectra, and a BP neural network model was obtained. Specifically, they were obtained as follows:
# There is a linear relationship between F0/F and [Q] to distinguish whether it is static quenching or dynamic quenching. The fluorescence quenching data are analyzed by Stern-Volmer equation to clarify the quenching mechanism: F0/F=1+KSV[Q]=1+Kqτ0[Q] (2);
# in the formula, F0 and F are fluorescence signals […] quencher, respectively. Ksv is Stern-Volmer quenching constant; Kq is a quenching rate constant of biomolecules; τ0 is the average lifetime of biomolecules without quencher (about 10^−8 s); [Q] is the concentration of quencher.
# The maximum dynamic quenching rate constant of all kinds of quenchers on polymers was 2.0×10^10 L·mol^−1·s^−1. Static quenching and dynamic quenching could be judged according to this value. If K^q was greater than 2.0×10^10 L·mol^−1·s^−1, it belonged to static quenching. Otherwise, it belonged to dynamic quenching.
# In this part, the binding sites and binding constants between carbamate pesticides and HSA were calculated. The following formula was used to calculate the number of binding sites (n) and the binding constant (Ka) of carbamate pesticides and HSA: log[(F0−F)/F]=log Ka+nlog[Q] (3);
# The interactions between biological molecules and drug molecules were weak intermolecular interactions, including hydrogen bonds, van der Waals forces, electrostatic forces and hydrophobic interactions. By using Van't Hoff equation, the thermodynamic constants of drug-protein interaction were obtained, and the main types of drug-protein interaction were judged according to the changes of binding constants under different conditions. LnK=−ΔH^0/RT+ΔS^0/R (4); ΔG^0=ΔH^0−TΔS^0 (5);
# There is a relationship among energy transfer efficiency E, distance r between energy donor and energy receptor and energy transfer distance R0. E=1−F/F0=R0^6/(R0^6+r^6) (6);
# E represents the transfer efficiency between donor and receptor, r is the average distance between donor and receptor, and R0 is the critical distance when the transfer efficiency is 50%. R0^6=8.79×10^−K^2N^−4φJ (7)
# K^2 is the orientation related to the geometry of donor and receptor of dipole. For random orientation in fluid, K^2=2/3; N is the average refractive index of the medium in the wavelength range with obvious spectral overlap, and the refractive index of water and organic matter is 1.336; φ is the quantum yield of donor, and the quantum yield of tryptophan in HSA is about 0.118; J represents the influence of spectral overlap between the emission spectrum of the donor and the absorption spectrum of the receptor, and can be calculated by the following formula: j=ΣF(λ)ϵ(λ)λ^4Δλ/ΣF(λ) Δλ (8);
# F(λ) is the corrected fluorescence signal of the donor in the wavelength range from λ to (λ+Δλ), while ϵ(λ) is the extinction coefficient of the receptor at λ.
# [2] = cited from earlier work; for LD50: modelling table; for Toxicity: toxicity grade by LD50, trailing figure = number of pesticides in group
# [3] = molecular target: T1, human serum albumin (HSA); test: Circular dichroism spectrum, secondary structure (α-helix content) of HSA; conditions: HSA 2×10^−6 M
# Description: the mixed solution to be tested was preheated at […] for 2-5 minutes, and the CD spectrum of HSA was recorded in the wavelength range of 200-500 nm . The concentration of HSA was kept at 2×10^−6 M, and the pesticide was (0-20)×10^−6 m. Firstly, HSA was measured, and then the ratio of HSA to pesticides needed to be determined specifically, which was preliminarily determined according to the ratio of 1:1, 1:2 and 1:3.
# According to the following equation, the result of CD spectrum was usually expressed as the mean residue ellipticity (MRE), and the unit was deg·cm^2·dmol^−1. MRE=ObservedCD(mdeg)/(10Cpnl) (9);
# in which Cp is the molar concentration of protein, n is the number (585) of amino acid residues, and 1 is the path length (1 mm). The α helicity of free and bound HSA is calculated from MRE values using the following formula: α−Helix(%)=[(−MRE208−4000)×100]/(33000-4000) (10)
# in which the MRE208 is the MRE value observed at 208 nm , 4000 is the MRE value of random coil conformation at 208 nm , and […] is the MRE value of pure α helix at 208 nm .
# [4] = 37°, modelling table, read-out: Ka (37°) (converted)
# [5] = 296 K, test-set pesticides (Table 4)
# [6] = 303 K, test-set pesticides (Table 4)
# [7] = 310 K, test-set pesticides (Table 4)
# T1 sequence (P02768 25-609): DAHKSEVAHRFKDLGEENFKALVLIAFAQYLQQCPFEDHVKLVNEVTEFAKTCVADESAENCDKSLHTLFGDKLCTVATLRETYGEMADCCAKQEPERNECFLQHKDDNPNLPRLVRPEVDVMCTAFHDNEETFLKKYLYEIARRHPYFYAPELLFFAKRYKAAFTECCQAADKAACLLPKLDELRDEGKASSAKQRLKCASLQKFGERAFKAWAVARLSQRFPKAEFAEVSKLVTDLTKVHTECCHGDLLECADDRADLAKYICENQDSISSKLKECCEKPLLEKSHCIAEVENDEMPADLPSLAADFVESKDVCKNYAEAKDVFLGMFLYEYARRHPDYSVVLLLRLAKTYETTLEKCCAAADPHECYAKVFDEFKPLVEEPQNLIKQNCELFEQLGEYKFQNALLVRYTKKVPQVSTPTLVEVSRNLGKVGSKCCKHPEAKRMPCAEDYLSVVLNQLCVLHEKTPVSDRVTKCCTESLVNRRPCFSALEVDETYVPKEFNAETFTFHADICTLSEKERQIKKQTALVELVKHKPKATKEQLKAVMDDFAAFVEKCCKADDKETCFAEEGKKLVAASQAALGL
smiles,measurement,setting,value
"CNC(=O)O/N=C/C(C)(C)SC [Aldicarb, aldicarb]",Ksv (37°),"[1]; 37°, modelling table",72295.50723
same,ΔG(37°),"[1]; 37°, modelling table",−24.42
same,Kd,[1]; [4],0.0773 mM
same,n,[1]; 296 K (Table 4),0.823 ± 0.002
same,ΔG^0,[1]; 296 K (Table 4),-5.321 kcal/mol
same,Kd,"[1]; 296 K (Table 4), read-out: Ka",0.119 mM
same,Ksv,[1]; [5],6.498 ± 0.153 10^4 M−1
same,n,[1]; 303 K (Table 4),0.837 ± 0.002
same,ΔG^0,[1]; 303 K (Table 4),-5.5786 kcal/mol
same,Kd,"[1]; 303 K (Table 4), read-out: Ka",0.0935 mM
same,Ksv,[1]; [6],6.999 ± 0.079 10^4 M−1
same,n,[1]; 310 K (Table 4),0.851 ± 0.002
same,r,[1]; 310 K (Table 4),2.623
same,ΔG^0,[1]; 310 K (Table 4),-5.8363 kcal/mol
same,Ksv,[1]; [7],7.230 ± 0.167 10^4 M−1
same,Binding distance/r,[1]; modelling table,2.623
same,Number of binding sites/n,[1]; modelling table,0.8508
same,Actual LD50,[2]; Table 5,0.5 mg/kg
same,Actual LD50,[2]; Table 6,0.5 mg/kg
same,LD50,[2],0.5 mg/kg
same,Toxicity,[2],Highly
"CNC(=O)O/N=C/C(C)(C)S(C)(=O)=O [Aldicarb-sulfone, aldicarb sulfone]",Ksv (37°),"[1]; 37°, modelling table",39842.68547
same,ΔG(37°),"[1]; 37°, modelling table",−17.29
same,n,[1]; 296 K (Table 4),0.582 ± 0.008
same,ΔG^0,[1]; 296 K (Table 4),-3.2622 kcal/mol
same,Ksv,[1]; [5],2.797 ± 0.157 10^4 M−1
same,n,[1]; 303 K (Table 4),0.624 ± 0.003
same,ΔG^0,[1]; 303 K (Table 4),-3.6977 kcal/mol
same,Ksv,[1]; [6],3.379 ± 0.129 10^4 M−1
same,n,[1]; 310 K (Table 4),0.654 ± 0.010
same,r,[1]; 310 K (Table 4),2.376
same,ΔG^0,[1]; 310 K (Table 4),-4.1334 kcal/mol
same,Ksv,[1]; [7],3.984 ± 0.197 10^4 M−1
same,Kd,"[1]; Ka (37°), 37°, modelling table",1.21 mM
same,Kd,"[1]; Ka, 296 K (Table 4)",3.86 mM
same,Kd,"[1]; Ka, 303 K (Table 4)",2.2 mM
same,Number of binding sites/n,[1]; modelling table,0.6544
"CNC(=O)Oc1ccc(N(C)C)c(C)c1 [Aminocarb, aminocarb]",Ksv (37°),"[1]; 37°, modelling table",39050.24214
same,ΔG(37°),"[1]; 37°, modelling table",−18.36
same,Kd,[1]; [4],0.786 mM
same,ΔG^0,[1]; 296 K,-3.7173 kcal/mol
same,Kq,"[1]; 296 K, pH 7.4",3.151 ± 0.089 10^12 M^−1s^−1
same,Ksv,"[1]; 296 K, pH 7.4",3.151 ± 0.089 10^4 M^−1
same,n (number of binding sites),"[1]; 296 K, pH 7.4",0.649 ± 0.005
same,Kd,"[1]; 296 K, pH 7.4, read-out: Ka (binding constant)",1.76 mM
same,ΔG^0,[1]; 303 K,-4.0531 kcal/mol
same,Kq,"[1]; 303 K, pH 7.4",3.409 ± 0.059 10^12 M^−1s^−1
same,Ksv,"[1]; 303 K, pH 7.4",3.409 ± 0.059 10^4 M^−1
same,n (number of binding sites),"[1]; 303 K, pH 7.4",0.669 ± 0.006
same,Kd,"[1]; 303 K, pH 7.4, read-out: Ka (binding constant)",1.25 mM
same,ΔG^0,[1]; 310 K,-4.3891 kcal/mol
same,R (binding distance),[1]; 310 K,2.215 nm
same,Kq,"[1]; 310 K, pH 7.4",3.905 ± 0.179 10^12 M^−1s^−1
same,Ksv,"[1]; 310 K, pH 7.4",3.905 ± 0.179 10^4 M^−1
same,n (number of binding sites),"[1]; 310 K, pH 7.4",0.699 ± 0.003
same,Kd,"[1]; 310 K, pH 7.4, read-out: Ka (binding constant)",0.786 mM
same,fluorescence of HSA quenched by pesticide,"[1]; 310 K, titration of pesticide",quenched
same,ΔH^0,[1],10.487 kcal/mol
same,ΔS^0,[1],200.780 J · mol^−1 · K^−1
same,Binding distance/r,[1]; modelling table,2.215
same,Number of binding sites/n,[1]; modelling table,0.6985
same,α-helix contents,[3]; 5:1 (Pesticide:HSA),49.862%
same,α-helix contents,[3]; 10:1 (Pesticide:HSA),49.082%
same,LD50,[2],30 mg/kg
same,Toxicity,[2],Highly
"CCC(C)c1ccccc1OC(=O)NC (stereo not shown) [Fenobucarb, fenobucarb]",Ksv (37°),"[1]; 37°, modelling table",50302.85806
same,ΔG(37°),"[1]; 37°, modelling table",−15.31
same,n,[1]; 296 K (Table 4),0.535 ± 0.006
same,ΔG^0,[1]; 296 K (Table 4),-3.0858 kcal/mol
same,Ksv,[1]; [5],3.803 ± 0.107 10^4 M−1
same,n,[1]; 303 K (Table 4),0.559 ± 0.004
same,ΔG^0,[1]; 303 K (Table 4),-3.3726 kcal/mol
same,Ksv,[1]; [6],4.110 ± 0.183 10^4 M−1
same,n,[1]; 310 K (Table 4),0.567 ± 0.008
same,r,[1]; 310 K (Table 4),2.791
same,ΔG^0,[1]; 310 K (Table 4),-3.6597 kcal/mol
same,Ksv,[1]; [7],5.030 ± 0.145 10^4 M−1
same,Kd,"[1]; Ka (37°), 37°, modelling table",2.64 mM
same,Kd,"[1]; Ka, 296 K (Table 4)",5.28 mM
same,Kd,"[1]; Ka, 303 K (Table 4)",3.67 mM
same,Binding distance/r,[1]; modelling table,2.791
same,Number of binding sites/n,[1]; modelling table,0.5672
same,Actual LD50,[2]; Table 5,350 mg/kg
same,Actual LD50,[2]; Table 6,350 mg/kg
same,LD50,[2],350 mg/kg
same,Toxicity,[2],Moderately
CNC(=O)O/N=C(\C[S+](C)[O-])C(C)(C)C (stereo not shown) [Thiofanox-sulfoxide],ΔG^0,[1]; 296 K,-4.1427 kcal/mol
same,Ka (binding constant),"[1]; 296 K, pH 7.4",(1.127 ± 0.100) × 10^3 M^−1
same,Kq,"[1]; 296 K, pH 7.4",3.284 ± 0.040 10^12 M^−1s^−1
same,Ksv,"[1]; 296 K, pH 7.4",3.284 ± 0.040 10^4 M^−1
same,n (number of binding sites),"[1]; 296 K, pH 7.4",0.707 ± 0.009
same,ΔG^0,[1]; 303 K,-4.5277 kcal/mol
same,Ka (binding constant),"[1]; 303 K, pH 7.4",(1.906 ± 0.103) × 10^3 M^−1
same,Kq,"[1]; 303 K, pH 7.4",4.237 ± 0.067 10^12 M^−1s^−1
same,Ksv,"[1]; 303 K, pH 7.4",4.237 ± 0.067 10^4 M^−1
same,n (number of binding sites),"[1]; 303 K, pH 7.4",0.726 ± 0.005
same,ΔG^0,[1]; 310 K,-4.913 kcal/mol
same,R (binding distance),[1]; 310 K,1.702 nm
same,Ka (binding constant),"[1]; 310 K, pH 7.4",(2.861 ± 0.176) × 10^3 M^−1
same,Kq,"[1]; 310 K, pH 7.4",5.339 ± 0.093 10^12 M^−1s^−1
same,Ksv,"[1]; 310 K, pH 7.4",5.339 ± 0.093 10^4 M^−1
same,n (number of binding sites),"[1]; 310 K, pH 7.4",0.746 ± 0.006
same,ΔH^0,[1],12.144 kcal/mol
same,ΔS^0,[1],230.219 J · mol^−1 · K^−1
same,α-helix contents,[3]; 5:1 (Pesticide:HSA),50.523%
same,α-helix contents,[3]; 10:1 (Pesticide:HSA),48.338%

# From patent publication US12385839B2, “Use of protein in predicting drug properties” (priority 2021, dated 2025)
